Assay results taken from patent publication US20220152160A1, “DOSING REGIMEN” (Novo Nordisk A/S, priority 2013, published 2022).

Columns and labels:
[1] = system: insulin-naïve participants with T2DM; conditions: human, in vivo
Description: (§1) This phase 3a, 26-week, randomized, controlled, open-label, multinational, treat-to-target, non-inferiority trial compared the efficacy and safety of IDeg U-200 (i.e. 200 U/mL) and IGlar (100 U/mL) both administered OD in combination with metformin (met) ±DPP-4 inhibitor in insulin-naïve participants with T2DM previously treated with oral antidiabetic drugs OAD(s), who qualified for intensification of treatment. The trial was open-label because the pen devices used to administer the basal insulins were distinctively different and blinding was, therefore, impossible.
(§2) Using the interactive voice/web response system, eligible participants were randomized 1:1 to either once-daily IDeg U-200 (IDeg 200 U/mL, 3 mL FlexTouch®, Novo Nordisk, Bagsvård, Denmark) or once-daily IGlar (Lantus® 100 U/mL, 3 mL SoloStar® Sanofi Aventis U.S. LLC) and continued metformin ±DPP-4 inhibitor treatment. Trial participants were instructed to continue the same total daily dose of metformin and DPP-4 inhibitor treatment as before the start of the trial.
(§3) Insulin degludec was administered once-daily with the main evening meal and, consistent with its product labelling, IGlar was administered once-daily (OD) at the same time each day. Either treatment was injected subcutaneously in the thigh, upper arm or abdomen. The starting dose for each was 10 U, and during the treatment period, the insulin dose was systematically titrated using a treat-to-target approach striving for a pre-breakfast self-measured plasma glucose (SMPG) level of 4.0-4.9 mmol/L (71-89 mg/dL). Both IDeg and IGlar were similarly titrated once weekly in 2 U increments. The treatment period was 26 weeks and doses were individually titrated in an effort to achieve the same glucose targets with both treatments.
The primary endpoint for this study was change in HbA1c (%) from baseline after 26 weeks of treatment. Secondary confirmatory endpoints tested were number of treatment-emergent confirmed hypoglycaemic episodes, change from baseline in central laboratory-measured fasting plasma glucose (FPG), within subject variability as measured by coefficient of variation (%), and frequency of participants achieving HbA1c<7% without hypoglycaemic episodes. […]
Treatment difference in change from baseline in HbA1c after 26 weeks was analyzed using an Analysis of Variance (ANOVA) model with treatment, antidiabetic treatment at screening, sex and region (Europe, North America, or South Africa) as fixed factors, and age and baseline HbA1c as covariates. […] The number of treatment-emergent confirmed hypoglycaemic episodes was analyzed using a negative binomial regression model including treatment, antidiabetic therapy at screening, sex and region as fixed factors, and age as covariate. […]

[2] = in vivo; cited from earlier work
[3] = system: insulin-naïve participants with T2DM; experiment: Clinical Trial 1 (26-week, treat-to-target): glycaemic control (HbA1c, FPG), IDeg U-200 vs IGlar; assay type: in vivo, human; conditions: whole population
Description: as §1
Participants who were insulin-naïve adults with T2DM for at least 6 months, HbA1, 7-10% (inclusive), BMI s 45 kg/m^2, and previously treated with metformin with or without additional OADs for at least 3 months were eligible to participate in the study.
as §2, §3
The primary endpoint for this study was change in HbA1c (%) from baseline after 26 weeks of treatment. Secondary confirmatory endpoints tested were number of treatment-emergent confirmed hypoglycaemic episodes, change from baseline in central laboratory-measured fasting plasma glucose (FPG), within subject variability as measured by coefficient of variation (%), and frequency of participants achieving HbA1c<7% without hypoglycaemic episodes. The supportive secondary endpoints included 9-point SMPG profiles, frequency of participants achieving HbA1c<7%, and Health-Related Quality of Life (HRQoL; Short Form 36 [SF-36 v.2] questionnaire) scores. The safety assessments were adverse events, hypoglycaemic episodes, insulin dose, body weight, physical examination, vital signs, fundoscopy, electrocardiogram (ECG) and laboratory tests (including antibodies). Confirmed hypoglycaemic episodes were defined as episodes with a PG value of <3.1 mmol/L (56 mg/dL) and severe episodes requiring assistance.^7 Hypoglycaemic episodes occurring between 00:01 h and 05:59 h (inclusive) were classified as nocturnal.
Analyses of all efficacy endpoints were based on the full analysis set (FAS) which included all randomized participants. The safety analysis set included all participants who received at least one dose of the investigational product or the comparator. Missing values were imputed using the last observation carried forward (LOCF) method.
The primary objective of this trial was to confirm the non-inferiority of IDeg U-200 OD to IGlar OD as assessed by change in HbA1c from baseline after 26 weeks of treatment. Non-inferiority was confirmed if the upper limit of the 95% confidence interval (Cl) for the treatment difference was 50.4%. […]

NεB29-(Nα—(HOOC(CH2)14CO)-γ-Glu)des(B30)-human insulin [insulin degludec]
%: Percentage of subjects experiencing at least one episode [1]: 6.1% | ERR IDeg/IGlar, nocturnal confirmed hypoglycaemia [1]: 0.64 | estimated rate ratio (ERR) IDeg/IGlar, confirmed hypoglycaemia [1]: 0.86 | rate of nocturnal confirmed hypoglycaemic episodes [1]: 0.18 episodes/patient-year | duration of action [2]: greater than 42 hours | non-inferiority to IGlar in change in HbA1c from baseline ([3]; 26 weeks): non-inferiority | estimated treatment difference (ETD) IDeg-IGlar in change in HbA1c ([3]; 26 weeks, 95% CI −0.11, 0.19): 0.04 | ETD in FPG (IDeg vs IGlar) ([3]; 26 weeks, 95% CI −0.78, −0.06): −0.42 | Central laboratory-measured FPG decrease ([3]; after 26 weeks): 4.0 mmol/L | Central laboratory-measured FPG reached ([3]; after 26 weeks): 5.7 mmol/L | FPG reduction compared with IGlar ([3]; after 26 weeks): statistically significantly greater FPG reduction
